Key:
Assay type in all cases: cell-based
OR2W1 = biological target: T1, OR2W1 (Homo sapiens, UniProt Q9Y3N9); assay: Luciferase reporter assay: suppression of the skatole response of OR2W1 expressed in HEK293 cells; settings: test substance 100 μM mixed with 300 μM skatole, HEK293 cells expressing OR2W1; for inhibition at 100 µM: 4 h, read-out: Inhibition rate 2W1
T1 construct: expressed in transfected cells; host or cells: HEK293
T1 sequence (Q9Y3N9 1-320): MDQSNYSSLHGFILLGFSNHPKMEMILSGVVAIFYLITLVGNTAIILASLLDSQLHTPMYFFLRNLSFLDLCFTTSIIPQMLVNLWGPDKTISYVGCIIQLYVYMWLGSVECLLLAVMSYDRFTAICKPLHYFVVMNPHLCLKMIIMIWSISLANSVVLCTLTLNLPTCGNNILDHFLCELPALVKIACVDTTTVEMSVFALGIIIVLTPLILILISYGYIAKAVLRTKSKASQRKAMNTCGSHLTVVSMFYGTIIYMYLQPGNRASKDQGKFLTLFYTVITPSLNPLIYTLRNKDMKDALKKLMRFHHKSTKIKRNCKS
Protocol: (§1) A reaction solution having a composition shown in Table 1 was prepared on a clean bench, and left to stand for 15 minutes. The solution was dispensed to each well of a 96-well plate (BD). Subsequently, HEK293 cells (100 μL, 3×10^5 cells/cm^2) were seeded in each well and cultured for 24 hours in an incubator at 37° C. and under 5% CO2 conditions.
(§2) The olfactory receptor expressed in HEK293 cells activates adenylate cyclase with the aid of Gαs present in cells, to thereby increase intracellular cAMP level. In this study, odorant response was measured by a luciferase reporter gene assay which monitored the intracellular cAMP level as the luminescence value derived from a firefly luciferase gene (fluc2P-CRE-hygro). Also, a Renilla luciferase gene fused downstream of a CMV promoter (hRluc-CMV) was also transfected to HEK293 cells as an internal standard to correct errors in gene transfer efficiency and number of cells.
(§3) Cell culturing was performed for four hours in a CO2-incubator, whereby the luciferase gene sufficiently expressed in the cells. Luciferase activity was measured by means of a Dual-Glo™ luciferase assay system (promega) according to an instruction manual thereof. The luminescence value derived from firefly luciferase induced by odorant stimulation was divided by the luminescence value of cells which were not stimulated with odorants. The thus-obtained—called “fold increase”—was employed as an index for response intensity.
(§4) The response inhibition rate of a test substance was calculated as follows. Firstly, luminescence value derived from firefly luciferase induced by stimulation with skatole (X), and luminescence value in cells which expressed the same receptor but were not stimulated with skatole (Y) were determined. By subtracting Y from X, the receptor activity by stimulation with skatole alone (X−Y) was determined. Similarly, the luminescence value induced by stimulation with a mixture of skatole and a test substance (Z) was determined. Through subtracting Y (the luminescence value in cells which expressed the same receptor but were not stimulated with skatole) from Z, the receptor activity (Z−Y) by stimulation with a mixture of skatole and the test substance was obtained. From the thus-obtained receptor activity by stimulation with skatole alone (X−Y) and the receptor activity in the presence of a test material (Z−Y), the response inhibition rate of the test substance was calculated by the following equation: Inhibition rate (%)={1−(Z−Y)/(X−Y)}×100.
(§5) In each case, multiple independent experiments were performed in duplicate, and the average of each experiment was used.

OR5K1 = biological target: T2, OR5K1 (Homo sapiens, UniProt Q8NHB7); assay: Luciferase reporter assay: suppression of the skatole response of OR5K1 expressed in HEK293 cells; settings: test substance 100 μM mixed with 300 μM skatole, HEK293 cells expressing OR5K1; for inhibition at 100 µM: 4 h, read-out: Inhibition rate 5K1
T2 construct: expressed in transfected cells; host or cells: HEK293
T2 sequence (Q8NHB7 1-308): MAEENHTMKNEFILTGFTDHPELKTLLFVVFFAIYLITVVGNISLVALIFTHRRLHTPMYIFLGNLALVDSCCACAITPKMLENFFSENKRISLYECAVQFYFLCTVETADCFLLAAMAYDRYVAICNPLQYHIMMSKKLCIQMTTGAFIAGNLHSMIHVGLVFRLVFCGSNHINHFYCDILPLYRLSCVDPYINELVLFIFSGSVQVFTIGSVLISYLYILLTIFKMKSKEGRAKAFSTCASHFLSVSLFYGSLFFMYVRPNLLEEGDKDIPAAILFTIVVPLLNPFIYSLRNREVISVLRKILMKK
Protocol: as §1, §2, §3, §4, §5

OR5P3 = biological target: T3, OR5P3 (Homo sapiens, UniProt Q8WZ94); assay: Luciferase reporter assay: suppression of the skatole response of OR5P3 expressed in HEK293 cells; settings: test substance 100 μM mixed with 300 μM skatole, HEK293 cells expressing OR5P3
T3 construct: expressed in transfected cells; host or cells: HEK293
T3 sequence (Q8WZ94 1-311): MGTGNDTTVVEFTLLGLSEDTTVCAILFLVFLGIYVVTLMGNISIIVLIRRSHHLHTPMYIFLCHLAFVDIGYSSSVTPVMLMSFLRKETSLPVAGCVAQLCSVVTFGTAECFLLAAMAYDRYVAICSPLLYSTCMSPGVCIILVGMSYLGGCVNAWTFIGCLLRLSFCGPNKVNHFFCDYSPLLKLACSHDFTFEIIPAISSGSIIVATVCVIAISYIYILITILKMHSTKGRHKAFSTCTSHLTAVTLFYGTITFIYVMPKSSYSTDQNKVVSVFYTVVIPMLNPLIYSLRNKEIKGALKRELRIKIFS
Protocol: as §1, §2, §3, §4, §5

OR8H1 = biological target: T4, OR8H1 (Homo sapiens, UniProt Q8NGG4); assay: Luciferase reporter assay: suppression of the skatole response of OR8H1 expressed in HEK293 cells; settings: test substance 100 μM mixed with 300 μM skatole, HEK293 cells expressing OR8H1; for inhibition at 100 µM: 4 h, read-out: Inhibition rate 8H1
T4 construct: expressed in transfected cells; host or cells: HEK293
T4 sequence (Q8NGG4 1-311): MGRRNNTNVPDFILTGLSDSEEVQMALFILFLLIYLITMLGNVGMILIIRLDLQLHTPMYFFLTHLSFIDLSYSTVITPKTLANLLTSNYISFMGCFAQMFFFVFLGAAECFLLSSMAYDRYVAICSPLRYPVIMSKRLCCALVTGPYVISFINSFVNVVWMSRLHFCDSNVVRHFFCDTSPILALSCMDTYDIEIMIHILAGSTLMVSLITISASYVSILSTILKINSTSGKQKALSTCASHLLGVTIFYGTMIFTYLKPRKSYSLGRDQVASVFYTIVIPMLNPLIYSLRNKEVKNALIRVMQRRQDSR
Protocol: as §1, §2, §3, §4, §5

| Compound | Inhibition rate 2W1 (OR2W1) | Inhibition rate 5K1 (OR5K1) | Inhibition rate 5P3 (OR5P3) | Inhibition rate 8H1 (OR8H1) | inhibition at 100 µM (OR2W1) [%] | inhibition at 100 µM (OR5K1) [%] | inhibition at 100 µM (OR8H1) [%] |
| --- | --- | --- | --- | --- | --- | --- | --- |
| CCOC(=O)OC1CCCCC1C(C)(C)C (stereo not shown) [Flormat, Ethyl 2-tert-butyl cyclohexyl carbonate] | A (A >80%) | B (B >50%) | A (A >80%) | A (A >80%) | – | – | – |
| CC(C)(C)c1ccc(CCC=O)cc1 [bourgeonal, 3-(4-tert-butylphenyl)propionaldehyde] | – | – | – | – | > 80 | 50 to 80 | < 20 |
| CC=CC(=O)C1C(C)C=CCC1(C)C (stereo not shown) [δ-damascones, 1-(2,6,6-Trimethyl-3-cyclohexenyl)-2-buten-1-one] | – | – | C (C >20%) | – | 20 to 50 | 20 to 50 | 20 to 50 |
| CC(=O)OC(C)(C)Cc1ccccc1 [dimethylbenzylcarbinyl acetate, α,α-Dimethyl phenylethyl acetate] | – | C (C >20%) | C (C >20%) | B (B >50%) | – | – | – |
| CC(C)Cc1ccc(CC(C)C=O)cc1 (stereo not drawn) [suzaral, α-Methyl-4-(2-methylpropyl)-benzenepropanal] | – | – | – | – | 20 to 50 | < 20 | 50 to 80 |
| CC/C=C\CCOC(=O)c1ccccc1O [cis-3-hexynlyl salicylate, 3(Z)-Hexenyl 2-hydroxy benzoate] | B (B >50%) | C (C >20%) | B (B >50%) | – | – | – | – |
| CC(=O)C=CC1=C(C)CCCC1(C)C [β-ionone, 4-(2,6,6-Trimethyi-1-cyclohexen-1-yl)-3-buten-2-one] | C (C >20%) | B (B >50%) | – | A (A >80%) | – | – | – |
| CCCCCCOC(=O)c1ccccc1O [hexyl salicylate, n-Hexyl-o-hydroxy benzoate] | B (B >50%) | – | C (C >20%) | – | – | – | – |
| CC(C)=CCCC1=CCC(C=O)CC1 (stereo not shown) [myrac aldehyde, 4-(4-Methyl-3-penten-1-yl)-3-cyclohexene-1-carboxaldehyde] | – | – | – | – | > 80 | < 20 | 20 to 50 |
| CCOC(=O)C1OC1(C)c1ccccc1 (stereo not shown) [Ethyl-2,3-epoxy-3-methyl-3-phenyl propionate] | – | C (C >20%) | C (C >20%) | B (B >50%) | – | – | – |
| Hexahydro-4,7-methanoinden-5(6)-yl acetate [tricyclodecenyl acetate] | – | C (C >20%) | C (C >20%) | B (B >50%) | – | – | – |
| 2,6-Dimethyl-2-octanol/3,7-Dimethyl-3-octanol [tetrahydromugol] | – | C (C >20%) | C (C >20%) | C (C >20%) | – | – | – |
| C=CCOC(=O)CCC1CCCCC1 [Allyl cyclohexylpropionate] | C (C >20%) | C (C >20%) | – | C (C >20%) | – | – | – |
| C=C(C)C1CC=C(C=O)CC1 (stereo not shown) [perillaldehyde, 4-(1-Methylethenyl)-1-cyclohexene-1-carboxyaldehyde] | – | – | – | – | < 20 | 20 to 50 | 50 to 80 |
| CC(=O)OCCC(C)CCC=C(C)C (stereo not shown) [citronellyl acetate, 3,7-Dimethyl-6-octen-1-yl acetate] | – | – | – | – | 20 to 50 | 20 to 50 | 20 to 50 |
| C=CC(C)=CCC(C)(C)C(=NO)C(C)C [Labienoxime, 2,4,4,7-Tetramethyl-6,8-nonadiene-3-one oxime] | – | – | – | – | 50 to 80 | < 20 | 20 to 50 |
| CC1=CC(C)C(C=O)CC1 (stereo not shown) [Triplal, Dimethyl-3-cyclohexene-1-carboxaldehyde] | C (C >20%) | – | C (C >20%) | C (C >20%) | – | – | – |
| 4(3)-(4-Methyl-3-pentenyl)-3-cyclohexenylmethyl acetate [myraldyl acetate] | C (C >20%) | – | C (C >20%) | C (C >20%) | – | – | – |

Reference: patent US9249453B2, “Method for identifying a malodor inhibitor” (Kao Corporation, priority 2011, dated 2016)
